According to patent US20060134102A1, “Lymphotoxin beta receptor agents in combination with chemotherapeutic agents” (Biogen Idec MA Inc., priority 2002, published 2006):
“And” between values parts separate entries of the source, which are not always exact repeats. Equal values may be shown once.

System: KM-20L2 human colorectal adenocarcinoma
Experiment: KM-20L2 xenograft model: growth of established KM-20L2 human colorectal tumors in athymic nude mice (tumor volume/weight, % T/C, Fa, Combination Index)
Format: in vivo

Substance: huCBE11: humanized anti-LT-β-R agonist antibody (LTβ receptor-activating mAb), described in WO 02/30986
- Mean Fraction Affected (Fa) (huCBE11 2 mg/kg, Day 9): 0.103
- Mean Fraction Affected/Fraction Unaffected (Fa/Fu) (huCBE11 2 mg/kg, Day 9): 0.115
- Mean Tumor Volume (huCBE11 2 mg/kg, Day 9): 100.3 cubic mm
- Mean Tumor Volume Decrease (huCBE11 2 mg/kg, Day 9): 11.5 cubic mm
- Mean Fraction Affected (Fa) (huCBE11 2 mg/kg, Day 13): 0.057
- Mean Fraction Affected/Fraction Unaffected (Fa/Fu) (huCBE11 2 mg/kg, Day 13): 0.061
- Mean Tumor Volume (huCBE11 2 mg/kg, Day 13): 162.7 cubic mm
- Mean Tumor Volume Decrease (huCBE11 2 mg/kg, Day 13): 9.9 cubic mm
- Mean Fraction Affected (Fa) (huCBE11 2 mg/kg, Day 16): 0.119
- Mean Fraction Affected/Fraction Unaffected (Fa/Fu) (huCBE11 2 mg/kg, Day 16): 0.135
- Mean Tumor Volume (huCBE11 2 mg/kg, Day 16): 233.5 cubic mm
- Mean Tumor Volume Decrease (huCBE11 2 mg/kg, Day 16): 31.5 cubic mm
- Mean Fraction Affected (Fa) (huCBE11 2 mg/kg, Day 20): 0.342
- Mean Fraction Affected/Fraction Unaffected (Fa/Fu) (huCBE11 2 mg/kg, Day 20): 0.521
- Mean Tumor Volume (huCBE11 2 mg/kg, Day 20): 263.7 cubic mm
- Mean Tumor Volume Decrease (huCBE11 2 mg/kg, Day 20): 137.3 cubic mm
- Mean Fraction Affected/Fraction Unaffected (Fa/Fu) (huCBE11 2 mg/kg, Day 23): 0.554
- Mean Tumor Volume (huCBE11 2 mg/kg, Day 23): 339.2 cubic mm
- Mean Tumor Volume Decrease (huCBE11 2 mg/kg, Day 23): 188.0 cubic mm
- Mean Fraction Affected (Fa) (huCBE11 2 mg/kg, Day 27): 0.419
- Mean Fraction Affected/Fraction Unaffected (Fa/Fu) (huCBE11 2 mg/kg, Day 27): 0.720
- Mean Tumor Volume (huCBE11 2 mg/kg, Day 27): 388.7 cubic mm
- Mean Tumor Volume Decrease (huCBE11 2 mg/kg, Day 27): 279.9 cubic mm
- Mean Fraction Affected (Fa) (huCBE11 2 mg/kg, Day 30): 0.449
- Mean Fraction Affected/Fraction Unaffected (Fa/Fu) (huCBE11 2 mg/kg, Day 30): 0.813
- Mean Tumor Volume (huCBE11 2 mg/kg, Day 30): 450.1 cubic mm
- Mean Tumor Volume Decrease (huCBE11 2 mg/kg, Day 30): 366.1 cubic mm
- Mean Fraction Affected (Fa) (huCBE11 2 mg/kg, Day 34): 0.505
- Mean Fraction Affected/Fraction Unaffected (Fa/Fu) (huCBE11 2 mg/kg, Day 34): 1.020
- Mean Tumor Volume (huCBE11 2 mg/kg, Day 34): 519.9 cubic mm
- Mean Tumor Volume Decrease (huCBE11 2 mg/kg, Day 34): 530.4 cubic mm
- Mean Fraction Affected (Fa) (huCBE11 2 mg/kg, Day 37): 0.520
- Mean Fraction Affected/Fraction Unaffected (Fa/Fu) (huCBE11 2 mg/kg, Day 37): 1.082
- Mean Tumor Volume (huCBE11 2 mg/kg, Day 37): 580.1 cubic mm
- Mean Tumor Volume Decrease (huCBE11 2 mg/kg, Day 37): 627.9 cubic mm
- Mean Fraction Affected (Fa) (huCBE11 2 mg/kg, Day 41): 0.567
- Mean Fraction Affected/Fraction Unaffected (Fa/Fu) (huCBE11 2 mg/kg, Day 41): 1.310
- Mean Tumor Volume (huCBE11 2 mg/kg, Day 41): 623.2 cubic mm
- Mean Tumor Volume Decrease (huCBE11 2 mg/kg, Day 41): 816.2 cubic mm
- Mean Fraction Affected (Fa) (huCBE11 2 mg/kg, Day 43): 0.588
- Mean Fraction Affected/Fraction Unaffected (Fa/Fu) (huCBE11 2 mg/kg, Day 43): 1.424
- Mean Tumor Volume (huCBE11 2 mg/kg, Day 43): 662.7 cubic mm
- Mean Tumor Volume Decrease (huCBE11 2 mg/kg, Day 43): 944.0 cubic mm
- Tumor growth vs vehicle control (huCBE11 4 mg/kg and 2 mg/kg, Days 20-55, separate study): significantly decreased
- Mean Fraction Affected (Fa) (huCBE11 4 mg/kg, Day 9): −0.125
- Mean Fraction Affected/Fraction Unaffected (Fa/Fu) (huCBE11 4 mg/kg, Day 9): −0.111
- Mean Tumor Volume (huCBE11 4 mg/kg, Day 9): 125.8 cubic mm
- Mean Tumor Volume Decrease (huCBE11 4 mg/kg, Day 9): −14.0 cubic mm
- Mean Fraction Affected (Fa) (huCBE11 4 mg/kg, Day 13): −0.048
- Mean Fraction Affected/Fraction Unaffected (Fa/Fu) (huCBE11 4 mg/kg, Day 13): −0.046
- Mean Tumor Volume (huCBE11 4 mg/kg, Day 13): 180.9 cubic mm
- Mean Tumor Volume Decrease (huCBE11 4 mg/kg, Day 13): −8.3 cubic mm
- Mean Fraction Affected/Fraction Unaffected (Fa/Fu) (huCBE11 4 mg/kg, Day 16): 0.070
- Mean Tumor Volume (huCBE11 4 mg/kg, Day 16): 247.6 cubic mm
- Mean Tumor Volume Decrease (huCBE11 4 mg/kg, Day 16): 17.4 cubic mm
- Mean Fraction Affected (Fa) (huCBE11 4 mg/kg, Day 20): 0.307
- Mean Fraction Affected/Fraction Unaffected (Fa/Fu) (huCBE11 4 mg/kg, Day 20): 0.442
- Mean Tumor Volume (huCBE11 4 mg/kg, Day 20): 278.0 cubic mm
- Mean Tumor Volume Decrease (huCBE11 4 mg/kg, Day 20): 123.0 cubic mm
- Mean Fraction Affected (Fa) (huCBE11 4 mg/kg, Day 23): 0.347
- Mean Fraction Affected/Fraction Unaffected (Fa/Fu) (huCBE11 4 mg/kg, Day 23): 0.531
- Mean Tumor Volume (huCBE11 4 mg/kg, Day 23): 344.3 cubic mm
- Mean Tumor Volume Decrease (huCBE11 4 mg/kg, Day 23): 182.9 cubic mm
- Mean Fraction Affected (Fa) (huCBE11 4 mg/kg, Day 27): 0.423
- Mean Fraction Affected/Fraction Unaffected (Fa/Fu) (huCBE11 4 mg/kg, Day 27): 0.733
- Mean Tumor Volume (huCBE11 4 mg/kg, Day 27): 385.8 cubic mm
- Mean Tumor Volume Decrease (huCBE11 4 mg/kg, Day 27): 282.8 cubic mm
- Mean Fraction Affected (Fa) (huCBE11 4 mg/kg, Day 30): 0.412
- Mean Fraction Affected/Fraction Unaffected (Fa/Fu) (huCBE11 4 mg/kg, Day 30): 0.700
- Mean Tumor Volume (huCBE11 4 mg/kg, Day 30): 480.1 cubic mm
- Mean Tumor Volume Decrease (huCBE11 4 mg/kg, Day 30): 336.1 cubic mm
- Mean Fraction Affected (Fa) (huCBE11 4 mg/kg, Day 34): 0.468
- Mean Fraction Affected/Fraction Unaffected (Fa/Fu) (huCBE11 4 mg/kg, Day 34): 0.879
- Mean Tumor Volume (huCBE11 4 mg/kg, Day 34): 558.9 cubic mm
- Mean Tumor Volume Decrease (huCBE11 4 mg/kg, Day 34): 491.4 cubic mm
- Mean Fraction Affected (Fa) (huCBE11 4 mg/kg, Day 37): 0.511
- Mean Fraction Affected/Fraction Unaffected (Fa/Fu) (huCBE11 4 mg/kg, Day 37): 1.044
- Mean Tumor Volume (huCBE11 4 mg/kg, Day 37): 591.1 cubic mm
- Mean Tumor Volume Decrease (huCBE11 4 mg/kg, Day 37): 616.9 cubic mm
- Mean Fraction Affected (Fa) (huCBE11 4 mg/kg, Day 41): 0.512
- Mean Fraction Affected/Fraction Unaffected (Fa/Fu) (huCBE11 4 mg/kg, Day 41): 1.050
- Mean Tumor Volume (huCBE11 4 mg/kg, Day 41): 702.0 cubic mm
- Mean Tumor Volume Decrease (huCBE11 4 mg/kg, Day 41): 737.4 cubic mm
- Mean Fraction Affected (Fa) (huCBE11 4 mg/kg, Day 43): 0.518
- Mean Fraction Affected/Fraction Unaffected (Fa/Fu) (huCBE11 4 mg/kg, Day 43): 1.073
- Mean Tumor Volume (huCBE11 4 mg/kg, Day 43): 775.1 cubic mm
- Mean Tumor Volume Decrease (huCBE11 4 mg/kg, Day 43): 831.6 cubic mm
- Inhibition of tumor growth vs vehicle control (huCBE11 20 mg/kg Days 16 through 55, 2 mg/kg Days 16 through 55, 0.2 mg/kg Days 20 through 55, separate study): significant inhibition of tumor growth
- Mean Fraction Affected (Fa) (huCBE11 20 mg/kg alone, Day 9): 0.053
- Mean Fraction Affected (Fa) (huCBE11 20 mg/kg alone, Day 13, 20 mg/kg): 0.087 and 0.086
- Mean Fraction Affected (Fa) (huCBE11 20 mg/kg alone, Day 16, 20 mg/kg): 0.263 and 0.264
- Mean Fraction Affected (Fa) (huCBE11 20 mg/kg alone, Day 20): 0.435
- Mean Fraction Affected (Fa) (huCBE11 20 mg/kg alone, Day 23): 0.504
- Mean Fraction Affected (Fa) (huCBE11 20 mg/kg alone, Day 27): 0.576
- Mean Fraction Affected (Fa) (huCBE11 20 mg/kg alone, Day 30): 0.539
- Mean Fraction Affected (Fa) (huCBE11 20 mg/kg alone, Day 34): 0.543
- Mean Fraction Affected (Fa) (huCBE11 20 mg/kg alone, Day 37): 0.525
- Mean Fraction Affected (Fa) (huCBE11 20 mg/kg alone, Day 41): 0.538
- % T/C (huCBE11 20 mg/kg, Day 27 (lowest observed)): 42.4%
- Activity by NCI criteria (% T/C at or below 42) (huCBE11, studies of the Camptosar example): inactive
- Activity by NCI criteria (% T/C of 42 or less) (huCBE11, studies of the gemcitabine example): active
- % T/C (huCBE11 dose groups, throughout both studies (Camptosar example)): > 42%
